Marks after values point to notes of the source that are not given here.
Tests used:
Type in all cases: in vivo, rat
[1] = test system: Ouabain-Hypertensive Rats (OHR); test: Anti-hypertensive effect in ouabain-hypertensive rats (OHR), six week oral treatment; conditions: six weeks
Experimental: (§1) Anti-hypertensive property of various derivatives were looked at in vivo in three animal models of hypertension (i.e., mutant α-adducin congenic rats, ouabain-hypertensive rats and Milan hypertensive rats).
Hypertension was provoked by subcutaneous ouabain infusion (15 μg/kg/day) in normotensive rats as already described (Ferrari P., et al., J. Pharmacol. Exp. Ther., 1998, 285, 83).

[2] = test system: Milan Hypertensive Rats (MHS); test: Anti-hypertensive effect in Milan hypertensive rats (MHS), six week oral treatment; conditions: for effect on SBP in MHS rats (in words): at the dose tested; for SBP / HR: oral gavage 10 μg/kg/day, six weeks; for SBP: vehicle 169 (experiment A), 164 (experiment B); for HR: vehicle 348 (experiment A), 363 (experiment B)
Excerpt: as §1
Milan hypertensive rats is a rat model of genetic hypertension sustained by α-adducin mutation and increased circulating levels of endogenous ouabain (Ferrari P., et al., Hypertension: Pathophysiology, Diagnosis and Management, (Volume 1). Laragh J H and Brenner B M (Eds.), Raven Press Publishers, New York, USA, 1261-1279, (1995).
The compounds were administered by oral gavage (10 μg/kg/day) for six weeks.

[3] = test system: rats bearing an α-adducin mutation (NA strain); test: Anti-hypertensive effect in mutant α-adducin congenic rats (NA), six week oral treatment; conditions: six weeks; for SBP: vehicle 164.4; for HR: vehicle 412
Experimental: Anti-hypertensive property of various derivatives were looked at in vivo in three animal models of hypertension (i.e., mutant α-adducin congenic rats, ouabain-hypertensive rats and Milan hypertensive rats). The compound of example 4 was administered by oral gavage at various doses for six weeks to rats bearing an α-adducin mutation (NA strain). Such mutation leading to hypertension and organ complication (Bianchi G., et al., Proc. Natl. Acad. Sci., 1994, 91, 3999) was obtained by introgressing a segment of chromosome 14 containing the locus of α-adducin from Milan Hypertensive rats (MHS), having the mutant variant, into Milan Normotensive rats (MNS), carrying the wild type α-adducin variant (Tripodi G., et al., Biochem. Biophys. Res. Commun., 2004, 324, 562).

OHR rats = test: Urinary protein excretion and renal function in OHR rats
Experimental: The effect of the compound of example 4 on urinary protein excretion was investigated. Increased levels of circulating endogenous ouabain not only associate with hypertension but also may affect renal function and increase the risk of renal failure and proteinuria (Stella P., et al., J. Int. Med., 2008, 263, 274) which represent major organ complications associated to hypertension.
OHR rats were orally treated with the compound of example 4 at 0.1 μg/kg/day for 6 weeks. At the end of the treatment, rats were allocated in single metabolic cages for 24 h urine collection.
Proteinuria and urinary creatinine were measured by commercial kits (Sentinel). Rats were sacrificed and blood was collected for plasma creatinine measurement.

[4] = oral gavage 0.1 μg/kg/day once a day, experiment A, vehicle 173
[5] = oral gavage 0.1 μg/kg/day once a day, experiment A, vehicle 387
[6] = oral gavage 1 μg/kg/day once a day, experiment A, vehicle 173
[7] = oral gavage 1 μg/kg/day once a day, experiment A, vehicle 387

Structure (SMILES)	SBP [1, 4]	HR [1, 5] [beats/min]	SBP [1, 6]	HR [1, 7] [beats/min]	effect on SBP in MHS rats (in words) [2]	SBP [2]	HR [2] [beats/min]	other results
CC(C)c1ccc2c(c1)CCC1C(C)(/C=N/O[C@@H]3CCNC3)CCCC21C.O=C(O)/C=C/C(=O)O (stereo partly drawn) [Example 4, (E)-15-((R)-3-Pyrrolidinyloxyimino)-13-isopropylpodocarpa-8,11,13-triene fumarate]	157** mmHg	382	153** mmHg	380	not effective on SBP			SBP ([3]; oral gavage 1 μg/kg/day): 150.6* mmHg; HR ([3]; oral gavage 1 μg/kg/day): 415 beats/min; SBP ([3]; oral gavage 10 μg/kg/day): 150.6* mmHg; HR ([3]; oral gavage 10 μg/kg/day): 425 beats/min; SBP ([3]; oral gavage 100 μg/kg/day): 147.5** mmHg; HR ([3]; oral gavage 100 μg/kg/day): 421 beats/min; urinary protein excretion in OHR rats (in words) (OHR rats; 0.1 μg/kg/day): significantly reduced the urinary protein excretion; Urinary creatinine (OHR rats; oral 0.1 μg/kg/day, 6 weeks, 24 h urine, OHR vehicle 33.7, saline controls 36.1): 35.6 mg/24 h; Proteinuria (OHR rats; oral 0.1 μg/kg/day, 6 weeks, 24 h urine, OHR vehicle 51.6 ± 5, saline controls 35.6): 42** mg/24 hr; Plasma creatinine (OHR rats; oral 0.1 μg/kg/day, 6 weeks, OHR vehicle 3.51, saline controls 3.1): 3.59 mg/dL
CC(C)c1ccc2c(c1)CCC1C(C)(/C=N/O[C@H]3CCNC3)CCCC21C.O=C(O)/C=C/C(=O)O (stereo partly drawn) [Example 5, (E)-15-((S)-3-Pyrrolidinyloxyimino)-13-isopropylpodocarpa-8,11,13-triene fumarate]	154** mmHg	390				155* mmHg	367	
CC(C)c1ccc2c(c1)CCC1C(C)(C=NOC3CCNCC3)CCCC21C.O=C(O)C=CC(=O)O (stereo not shown) [Example 6, (E)-15-(4-Piperidinyloxyimino)-13-isopropylpodocarpa-8,11,13-triene fumarate]			166 mmHg	392				
CC(C)c1ccc2c(c1)C(=O)C[C@H]1[C@](C)(/C=N/OCCN)CCC[C@]21C.O=C(O)/C=C/C(=O)O [Example 12, (E)-15-(2-Aminoethoxyimino)-13-isopropylpodocarpa-8,11,13-triene-7-one fumarate]					significantly reduced SBP	161* mmHg	347	SBP ([1]; oral gavage 10 μg/kg/day once a day, experiment B, vehicle 171): 156** mmHg; HR ([1]; oral gavage 10 μg/kg/day once a day, experiment B, vehicle 377): 380 beats/min
CC(C)c1ccc2c(c1)CCC1C(C)(/C=C\CCCN)CCCC21C.O=C(O)/C=C/C(=O)O (stereo not shown) [Example 23, (Z)-15-(4-Aminobutyliden)-13-isopropylpodocarpa-8,11,13-triene fumarate]			159** mmHg	370				
CC(C)c1ccc2c(c1)CCC1C(C)(CCCCCN)CCCC21C.O=C(O)/C=C/C(=O)O (stereo not shown) [Example 25, 15-(4-Aminobutyl)-13-isopropylpodocarpa-8,11,13-triene fumarate]	164 mmHg	395						
CC(N)CCCCC1(C)CCCC2(C)c3ccc(C(C)C)cc3CCC12.O=C(O)/C=C/C(=O)O (stereo not shown) [Example 26, 15-(4-Aminopentyl)-13-isopropylpodocarpa-8,11,13-triene fumarate]			164 mmHg	374				
CC(C)c1ccc2c(c1)CCC1C(C)(COCCCN)CCCC21C.O=C(O)/C=C/C(=O)O (stereo not shown) [Example 27, 15-(3-Aminopropoxy)-13-isopropylpodocarpa-8,11,13-triene fumarate]			156** mmHg	390	significantly reduced SBP	156* mmHg	367	

Reference: patent US8822692B2, “Diterpenoid derivatives endowed of biological properties” (SIGMA-TAU Industrie Farmaceutiche Riunite S.p.A., priority 2010, dated 2014)
